Source: US20240092784A1, “CONDENSED HETEROCYCLIC COMPOUND” (NISSAN CHEMICAL CORPORATION, priority 2020, published 2024)
pIC50: −log10 of the molar value.

Target: human SPR (Homo sapiens (Human), UniProt P35270)
Experiment: Evaluation Example 2: Measurement of human SPR inhibitory activity (seven concentrations, sepiapterin absorbance at 420 nm)
Type: biochemical
Details: Evaluation Example 2, seven concentrations 0.14 nM to 100 nM, 240 minutes at room temperature, read-out: IC50
Procedure, shortened: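 Reactions ran 240 min at room temperature in 100 mM Tris-HCl pH 7.5 with 0.01% BSA. They contained tag-cleaved, E. coli-expressed full-length human SPR (diluted to 150 ng/mL), seven compound concentrations from 0.14 to 100 nM, and sepiapterin/NADPH added as a 120 μM/160 μM solution. Inhibition was calculated from sepiapterin absorbance at 420 nm.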

human SPR, sequence (P35270 whole entry): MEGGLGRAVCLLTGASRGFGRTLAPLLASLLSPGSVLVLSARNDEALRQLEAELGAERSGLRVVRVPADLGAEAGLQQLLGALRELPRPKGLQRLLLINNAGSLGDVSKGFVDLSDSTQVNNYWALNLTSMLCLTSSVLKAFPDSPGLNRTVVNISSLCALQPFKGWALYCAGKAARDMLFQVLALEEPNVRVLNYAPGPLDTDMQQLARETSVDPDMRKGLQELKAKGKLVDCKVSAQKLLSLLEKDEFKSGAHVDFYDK

Row | Compound | pIC50
1 | CC(C)Cn1c(=O)c(C(=O)NC2CC2)c(O)n2ncc(/C=C/C(=O)N3CCC[C@H]3C(=O)N(C)C)c12 [compound 587, (S,E)-N-Cyclopropyl-3-(3-(2-(dimethylcarbamoyl)pyrrolidin-1-yl)-3-oxoprop-1-en-1-yl)-7-hydroxy-4-isobutyl-5-oxo-4,5-dihydropyrazolo[1,5-a]pyrimidine-6-carboxamide] | 8.86
2 | CC(C)Cn1c(=O)c(C(=O)NC2CC2)c(O)n2ncc(/C=C/C(=O)N3CCC[C@@H]3C(C)(C)O)c12 [compound 589, (R,E)-N-Cyclopropyl-7-hydroxy-3-(3-(2-(2-hydroxypropan-2-yl)pyrrolidin-1-yl)-3-oxoprop-1-en-1-yl)-4-isobutyl-5-oxo-4,5-dihydropyrazolo[1,5-a]pyrimidine-6-carboxamide] | 8.87
3 | CC(C)Cn1c(=O)c(C(=O)NC2CC2)c(O)n2ncc(/C=C/C(=O)N3[C@H](C)CC[C@H]3C)c12 [compound 590, N-Cyclopropyl-3-((E)-3-((2R,5R)-2,5-dimethylpyrrolidin-1-yl)-3-oxoprop-1-en-1-yl)-7-hydroxy-4-isobutyl-5-oxo-4,5-dihydropyrazolo[1,5-a]pyrimidine-6-carboxamide] | 8.96
4 | CC(C)Cn1c(=O)c(C(=O)NC2CC2)c(O)n2ncc(/C=C/C(=O)N3[C@@H](C)CC[C@@H]3C)c12 [compound 591, N-Cyclopropyl-3-((E)-3-((2S,5S)-2,5-dimethylpyrrolidin-1-yl)-3-oxoprop-1-en-1-yl)-7-hydroxy-4-isobutyl-5-oxo-4,5-dihydropyrazolo[1,5-a]pyrimidine-6-carboxamide] | 8.89
5 | CC(C)Cn1c(=O)c(C(=O)NC2CC2)c(O)n2ncc(/C=C/C(=O)N3[C@H](C)CC[C@@H]3C)c12 [compound 592, N-Cyclopropyl-3-((E)-3-(cis-2,5-dimethylpyrrolidin-1-yl)-3-oxoprop-1-en-1-yl)-7-hydroxy-4-isobutyl-5-oxo-4,5-dihydropyrazolo[1,5-a]pyrimidine-6-carboxamide] | 8.84
6 | CC(C)Cn1c(=O)c(C(=O)NC2CC2)c(O)n2ncc(/C=C/C(=O)N3CCc4cccnc43)c12 [compound 594, (E)-N-Cyclopropyl-3-(3-(2,3-dihydro-1H-pyrrolo[2,3-b]pyridin-1-yl)-3-oxoprop-1-en-1-yl)-7-hydroxy-4-isobutyl-5-oxo-4,5-dihydropyrazolo[1,5-a]pyrimidine-6-carboxamide] | 8.70
7 | CC(C)Cn1c(=O)c(C(=O)NC2CC2)c(O)n2ncc(/C=C/C(=O)N3[C@H](C)CCC[C@@H]3C)c12 [compound 597, N-Cyclopropyl-3-((E)-3-(cis-2,6-dimethylpiperidin-1-yl)-3-oxoprop-1-en-1-yl)-7-hydroxy-4-isobutyl-5-oxo-4,5-dihydropyrazolo[1,5-a]pyrimidine-6-carboxamide] | 8.79
8 | CC(C)Cn1c(=O)c(C(=O)NC2CC2)c(O)n2ncc(/C=C/C(=O)N3CC[C@H](C(C)(C)O)C3)c12 [compound 598, (S,E)-N-Cyclopropyl-7-hydroxy-3-(3-(3-(2-hydroxypropan-2-yl)pyrrolidin-1-yl)-3-oxoprop-1-en-1-yl)-4-isobutyl-5-oxo-4,5-dihydropyrazolo[1,5-a]pyrimidine-6-carboxamide] | 8.92
9 | CC(C)Cn1c(=O)c(C(=O)NC2CC2)c(O)n2ncc(/C=C/C(=O)N3CCC[C@@H]3C(C)C)c12 [compound 599, (R,E)-N-Cyclopropyl-7-hydroxy-4-isobutyl-3-(3-(2-isopropylpyrrolidin-1-yl)-3-oxoprop-1-en-1-yl)-5-oxo-4,5-dihydropyrazolo[1,5-a]pyrimidine-6-carboxamide] | 8.90
10 | CC(C)Cn1c(=O)c(C(=O)NC2CC2)c(O)n2ncc(/C=C/C(=O)N3CCC[C@H]3C(C)C)c12 [compound 600, (S,E)-N-Cyclopropyl-7-hydroxy-4-isobutyl-3-(3-(2-isopropylpyrrolidin-1-yl)-3-oxoprop-1-en-1-yl)-5-oxo-4,5-dihydropyrazolo[1,5-a]pyrimidine-6-carboxamide] | 8.83
11 | CC(C)Cn1c(=O)c(C(=O)NC2CC2)c(O)n2ncc(/C=C/C(=O)N3CCC[C@@H]3C(F)F)c12 [compound 601, (R,E)-N-Cyclopropyl-3-(3-(2-(difluoromethyl)pyrrolidin-1-yl)-3-oxoprop-1-en-1-yl)-7-hydroxy-4-isobutyl-5-oxo-4,5-dihydropyrazolo[1,5-a]pyrimidine-6-carboxamide] | 8.97
12 | CC(C)Cn1c(=O)c(C(=O)NC2CC2)c(O)n2ncc(/C=C/C(=O)N3CCOC[C@H]3c3ccccc3)c12 [compound 602, (R,E)-N-Cyclopropyl-7-hydroxy-4-isobutyl-5-oxo-3-(3-oxo-3-(3-phenylmorpholino)prop-1-en-1-yl)-4,5-dihydropyrazolo[1,5-a]pyrimidine-6-carboxamide] | 8.94
13 | CC(C)Cn1c(=O)c(C(=O)NC2CC2)c(O)n2ncc(/C=C/C(=O)N3CCC[C@H]3c3cccnc3)c12 [compound 603, (S,E)-N-Cyclopropyl-7-hydroxy-4-isobutyl-5-oxo-3-(3-oxo-3-(2-(pyridin-3-yl)pyrrolidin-1-yl)prop-1-en-1-yl)-4,5-dihydropyrazolo[1,5-a]pyrimidine-6-carboxamide] | 8.96
14 | CC(C)Cn1c(=O)c(C(=O)NC2CC2)c(O)n2ncc(/C=C/C(=O)N(C)Cc3ccn(C)n3)c12 [compound 604, (E)-N-Cyclopropyl-7-hydroxy-4-isobutyl-3-(3-(methyl((1-methyl-1H-pyrazol-3-yl)methyl)amino)-3-oxoprop-1-en-1-yl)-5-oxo-4,5-dihydropyrazolo[1,5-a]pyrimidine-6-carboxamide] | 9.04
15 | CC[C@H]1CCCN1C(=O)/C=C/c1cnn2c(O)c(C(=O)NC3CC3)c(=O)n(CC(C)C)c12 [compound 605, (S,E)-N-Cyclopropyl-3-(3-(2-ethylpyrrolidin-1-yl)-3-oxoprop-1-en-1-yl)-7-hydroxy-4-isobutyl-5-oxo-4,5-dihydropyrazolo[1,5-a]pyrimidine-6-carboxamide] | 8.92
16 | CC(C)Cn1c(=O)c(C(=O)NC2CC2)c(O)n2ncc(/C=C/C(=O)N3CCOC[C@@H]3c3ccccc3)c12 [compound 606, (S,E)-N-Cyclopropyl-7-hydroxy-4-isobutyl-5-oxo-3-(3-oxo-3-(3-phenylmorpholino)prop-1-en-1-yl)-4,5-dihydropyrazolo[1,5-a]pyrimidine-6-carboxamide] | 8.88
17 | CC(C)Cn1c(=O)c(C(=O)NC2CC2)c(O)n2ncc(/C=C/C(=O)N3CCC[C@@H]3c3ccccc3)c12 [compound 607, (R,E)-N-Cyclopropyl-7-hydroxy-4-isobutyl-5-oxo-3-(3-oxo-3-(2-phenylpyrrolidin-1-yl)prop-1-en-1-yl)-4,5-dihydropyrazolo[1,5-a]pyrimidine-6-carboxamide] | 8.78
18 | Cc1nn2c(O)c(C(=O)NC3CC3)c(=O)n(CC(C)C)c2c1/C=C/C(=O)N1CC2C(C1)C2(F)F (centres unmarked) [compound 608, (E)-N-Cyclopropyl-3-(3-(6,6-difluoro-3-azabicyclo[3.1.0]hexan-3-yl)-3-oxoprop-1-en-1-yl)-7-hydroxy-4-isobutyl-2-methyl-5-oxo-4,5-dihydropyrazolo[1,5-a]pyrimidine-6-carboxamide] | 8.97
19 | CC[C@@H]1CCCN1C(=O)/C=C/c1c(C)nn2c(O)c(C(=O)NC3CC3)c(=O)n(CC(C)C)c12 [compound 610, (R,E)-N-Cyclopropyl-3-(3-(2-ethylpyrrolidin-1-yl)-3-oxoprop-1-en-1-yl)-7-hydroxy-4-isobutyl-2-methyl-5-oxo-4,5-dihydropyrazolo[1,5-a]pyrimidine-6-carboxamide] | 8.79
20 | Cc1nn2c(O)c(C(=O)NC3CC3)c(=O)n(CC(C)C)c2c1/C=C/C(=O)N1CCC[C@@H]1C(C)(C)O [compound 611, (R,E)-N-Cyclopropyl-7-hydroxy-3-(3-(2-(2-hydroxypropan-2-yl)pyrrolidin-1-yl)-3-oxoprop-1-en-1-yl)-4-isobutyl-2-methyl-5-oxo-4,5-dihydropyrazolo[1,5-a]pyrimidine-6-carboxamide] | 8.91
